Experimental data taken from patent US5532227A, “Tetracyclines including non-antimicrobial chemically-modified tetracyclines inhibit excessive glycosylation of different types of collagen and other proteins during diabetes” (The Research Foundation of State University of New York, priority 1994, dated 1996).

What was measured:
[1] = test system: skin collagen; test: Glycosylation of diabetic rat skin collagen (Example V, Table IV); type: in vivo, Sprague-Dawley rat; settings: 5 mg daily oral gavage, 21 days; for mM Fructosamine/mg protein (Mean ± SE): NDC 0.027, untreated diabetic 0.377; for Reduction of glycosylation in treated diabetics (%): vs untreated diabetic control
Description: All animals were weighed weekly.
The subcutaneous muscle layer was removed leaving essentially the dermis. The dermis (skin connective tissue) samples were minced, then homogenized in phosphate buffered saline (4° C.). Following centrifugation (at 9000 rpm, 4° C., 30 min.) of the homogenates, the supernatants were discarded. The pellets were repeatedly washed, then resuspended and extracted at 4° C. overnight in chloroform/methanol to remove lipids. The de-lipidized tissue samples were then washed in 100% methanol, then in 50% methanol. Following the methanol washes, the samples were washed with HEPES buffer (pH 7.4). The skin connective tissue samples (100 mg of each sample) were incubated at 37° C. (24 hours) with chromatographically-purified bacterial collagenase. After 24 hours the reaction mixture was centrifuged at 7000 rpm, room temperature for 30 minutes. Following centrifugation, the supernatants containing the digested collagen were collected. Aliquots of the supernatants were analyzed for glycosylated collagen using a modification of the Isolab Glyco-PROBE™ GSP assay kit. The assay is designed to measure glucose bound to protein which was then converted by Amadori rearrangement to fructosamine. For purposes of the present invention, the sample total protein was increased to compensate for low levels of glycosylated collagen compared to glycosylated serum proteins.

[2] = Wong et al. 1984, cited from earlier work

Row | SMILES | mM Fructosamine/mg protein (Mean ± SE) [1] | Reduction of glycosylation in treated diabetics (%) [1] | reduction of resulting inflammation in acne vulgaris ([2]; combination study with tetracycline) | effectiveness against acne vulgaris ([2]; combination study with ibuprofen)
1 | NC(=O)C1=C(O)C2(O)C(=O)C3=C(O)c4c(O)cccc4CC3CC2CC1=O (stereo not shown) [CMT-3, 6-demethyl-6-deoxy-4-dedimethylaminotetracycline] | 0.186 ± 0.048 mM Fructosamine/mg protein | 50.7% |  | 
2 | CC1(O)c2c(Cl)ccc(O)c2C(=O)C2=C(O)C3(O)C(=O)C(C(N)=O)=C(O)CC3CC21 (stereo not shown) [CMT-4, 7-chloro-4-dedimethylaminotetracycline] | 0.236 ± 0.026 mM Fructosamine/mg protein | 37.4% |  | 
3 | CC1(O)c2cccc(O)c2C(O)=C2C(=O)C3C(O)=C(C(N)=O)C(=O)CC3CC21 (stereo not shown) [CMT-7, 12a-deoxy-4-deoxy-4-dedimethylaminotetracycline] | 0.141 ± 0.086 mM Fructosamine/mg protein | 62.6% |  | 
4 | C[C@H]1c2cccc(O)c2C(O)=C2C(=O)[C@]3(O)C(O)=C(C(N)=O)C(=O)C[C@@H]3[C@@H](O)[C@@H]21 [CMT-8, 6α-deoxy-5-hydroxy-4-dedimethylaminodoxycycline] | 0.118 ± 0.090 mM Fructosamine/mg protein | 68.7% |  | 
5 | CC(C)Cc1ccc(C(C)C(=O)O)cc1 (stereo not shown) [ibuprofen] |  |  | useful in reducing the resulting inflammation | 
6 | CN(C)C1C(=O)C(C(N)=O)=C(O)C2(O)C(=O)C3=C(O)c4c(O)cccc4C(C)(O)C3CC12 (stereo not shown) [tetracycline] |  |  |  | effective agent against acne vulgaris
